Results as given in patent US4863935A, “Mitomycin compounds having useful anti-tumor activity” (priority 1986, dated 1989).

How the values were obtained:
Sarcoma 180 solid tumour = experiment: ED50 against Sarcoma 180 solid tumour implanted in mice; assay type: in vivo, male mouse (ddy strain); conditions: for (CI)c: (CI of test compound)/(CI of mitomycin C), CI = LD50/ED50; for ED50: Mus musculus, Sarcoma-180, iv, 168 h, i.v. (tail vein) 24 h after implantation, tumour volume at 7 days, dose for T/C of 0.5
Source text: With regard to the so-called chemotherapeutic index viz. the CI value against sarcoma 180 solid tumour, expressed by the formula: […]
(§1) As used herein, the term "LD50 " denotes the acute toxicity. The term "ED50 " denotes the administered amount needed for reducing the volume of Sarcoma 180 solid tumours in animals to 50% of the corresponding tumour volume in control (untreated) animals. The term "WBC4000 " denotes the minimum dose of the drug needed to reduce the number of peripheral leucocytes to 4000/mm^3. A greater TI value results in a broader tolerance to the drug, which is advantageous for higher anti-tumour activity and decreased toxicity. The term "T" used herein denotes the average survival days of the test animals administered with the test compound. The term "C" denotes the average survival days of the control (untreated) animals. The term "OPD" denotes the dose of the drug resulting in the highest survival ratio. The term "ILS30 " denotes a 30% increase of life-span.
the term (CI)c denotes (CI of the test compound)/(CI of mitomycin C), and
5×10^6 sarcoma 180 solid tumor cells were abdominally implanted into ddy mice. 7 days after this, ascites cells were sampled. The cells were washed once with a sterilized physiological saline and were used to prepare a cell suspension containing 5×10^7 cells per ml of a sterilized physiological saline. On each occasion, 0.1 ml of the cell suspension was subcutaneously implanted under the skin of the right armpit of a male mouse (ddy strain; body weight 20±2 g). The test compound which was dissolved in a physiological saline with or without addition of Tween 80 was injected into the tail vein of each animal of a group consisting of 5 mice at a dose of 0.1-0.2 ml 24 hours after the implantation of the tumor cells.
The anti-tumor activity was determined in the following manner:
7 days after the implantation, the major axis (a) and the minor axis (b) of the tumour were measured to calculate a value of (a×b^2)/2 which corresponds to the volume of the tumour. The antitumour activity was expressed by the ratio of the volume of the tumour (T) of the group of animals administered with the test compound to the corresponding volume of tumours (C) of the untreated animals.
On graph paper, T/C was plotted on the ordinate using an arithmetic scale and the administered amount of test compound was plotted on the abscissa using a logarithmic scale. The relationship between the dose and T/C was shown by a straight line determined by the method of least squares, from which ED50 viz. a dose corresponding to T/C of 0.5 was obtained.

[1] = LD50 acute toxicity, ddy mice, single abdominal injection; conditions: mouse, in vivo, ip, 5 ddy mice, 14 days observation, Behrens-Koerber's method
Source text: as §1
LD50, ED50 and WBC4000 were respectively determined as follows:
Each animal of the test group, consisting of 5 ddy mice, was administered once with a test compound by abdominal injection. […] To determine the LD50 value, Behrens-Koerber's method was applied.

[2] = system: lymphocytic Leukemia P-388; experiment: Anti-tumour activity against lymphocytic Leukemia P-388 in mice; assay type: in vivo, mouse, female of CDF strain
Source text: Also, their therapeutic indexes, expressed by the formula:
TI=(OPD)/(dose which results in ILS30),
against lymphocytic Leukemia P-388 and the maximum increased life spans (ILSmax), defined by the formula: […]
as §1
The experiment was carried out in the following manner. 1×10^6 lymphocytic Leukemia P-388 tumour cells were abdominally implanted into each mouse of a group consisting of 5 mice (body weight about 22 g; female of CDF strain). 24 hours after implantation, a physiological saline solution (0.2 ml) containing the test compound with or without addition of Tween 80 was abdominally given to the test animal.
Table 7 indicates anti-tumour activities of selected Compounds (I) against lyphocytic Leukemia P-388.

Structure (SMILES) | (CI)c (Sarcoma 180 solid tumour) | ED50 (Sarcoma 180 solid tumour) [mg/kg] | LD50 at 336 h [1] [mg/kg] | (ILSmax)c ([2]; (ILSmax of test compound)/(ILSmax of mitomycin C), ILS=(T-C)/C×100) | (TI)c ([2]; (TI of test compound)/(TI of mitomycin C), TI = OPD/dose which results in ILS30) | ED (optimal dose, highest survival) ([2]; Mus musculus, P388, ip, dose resulting in the highest survival ratio, i.p. 24 h after implantation, 30 days, read-out: OPD) [mg/kg] | ED (30% increase of life-span) ([2]; Mus musculus, P388, ip, 30% increase of life-span, i.p. 24 h after implantation, read-out: Dose needed to give ILS30) [mg/kg]
CO[C@@]12[C@H](COC(N)=O)C3=C(C(=O)C(C)=C(NCCSCOC(=O)NCCC(=O)OC(C)(C)C)C3=O)N1C[C@@H]1N[C@@H]12 [Compound 2, 7-N--[2-(2-t-butoxycarbonylethyl)aminocarbonyloxymethylthioethyl]mitomycin C] | 1.44 | 11.2 | 45 | – | – | – | –
CO[C@@]12[C@H](COC(N)=O)C3=C(C(=O)C(C)=C(NCCSC(=O)NCCC(=O)OCc4ccccc4)C3=O)N1C[C@@H]1N[C@@H]12 [Compound 3, 7-N--[2-(2-benzyloxycarbonylethyl)aminocarbonylthioethyl]mitomycin C] | > 0.89 | 39.6 | > 100 | – | – | – | –
CO[C@@]12[C@H](COC(N)=O)C3=C(C(=O)C(C)=C(NCCSC(=O)N(C)C)C3=O)N1C[C@@H]1N[C@@H]12 [Compound 8, 7-N--(2-dimethylaminocarbonylthioethyl)mitomycin C] | 0.65 | 14.4 | 26.3 | – | – | – | –
CO[C@@]12[C@H](COC(N)=O)C3=C(C(=O)C(C)=C(NCCSC(=O)NC(CC(=O)OCc4ccccc4)c4ccccc4)C3=O)N1C[C@@H]1N[C@@H]12 (stereo partly shown) [Compound 10, 7-N--[2-(1-phenyl-2-benzyloxycarbonylethyl)aminocarbonylthioethyl]mitomycin C] | > 0.43 | 95.5 | > 100 | – | – | – | –
CO[C@@]12[C@H](COC(N)=O)C3=C(C(=O)C(C)=C(NCCSC(=O)N4CCC[C@H]4C(=O)OCc4ccccc4)C3=O)N1C[C@@H]1N[C@@H]12 [Compound 16, 7-N--[2-((S)--2-benzyloxycarbonylpyrrolidino)-carbonylthioethyl]mitomycin C] | > 0.45 | 84.4 | > 100 | – | – | – | –
CNC(=O)[C@@H]1CCCN1C(=O)SCCNC1=C(C)C(=O)C2=C(C1=O)[C@@H](COC(N)=O)[C@@]1(OC)[C@H]3N[C@H]3CN21 [Compound 17, 7-N--[2-((S)--2-methylaminocarbonylpyrrolidino)-carbonylthioethyl]mitomycin C] | 1.32 | 21.7 | 75 | – | – | – | –
CO[C@@]12[C@H](COC(N)=O)C3=C(C(=O)C(C)=C(NCCSC(=O)N4CCC[C@H]4C(=O)N(C)C)C3=O)N1C[C@@H]1N[C@@H]12 [Compound 18, 7-N--[2-((S)--2-dimethylaminocarbonylpyrrolidino)carbonylthioethyl]mitomycin C] | 3.02 | 12.3 | 97.5 | – | – | – | –
CO[C@@]12[C@H](COC(N)=O)C3=C(C(=O)C(C)=C(NCCSC(=O)N4CCC[C@H]4C(N)=O)C3=O)N1C[C@@H]1N[C@@H]12 [Compound 19, 7-N--[2-((S)--2-carbamoylpyrrolidino)carbonylthioethyl]mitomycin C] | 1.46 | 19.6 | 75 | – | – | – | –
CO[C@@]12[C@H](COC(N)=O)C3=C(C(=O)C(C)=C(NCCSC(=O)N4CCCC4)C3=O)N1C[C@@H]1N[C@@H]12 [Compound 21, 7-N--(2-pyrrolidinocarbonylthioethyl)mitomycin C] | 1.44 | 8.4 | 37.5 | – | – | – | –
CNC(=S)SCCNC1=C(C)C(=O)C2=C(C1=O)[C@@H](COC(N)=O)[C@@]1(OC)[C@H]3N[C@H]3CN21 [Compound 25, 7-N--(2-methylaminothiocarbonylthioethyl)mitomycin C] | 1.96 | 10.5 | 52.5 | – | – | – | –
CCCCNC(=O)SCCNC1=C(C)C(=O)C2=C(C1=O)[C@@H](COC(N)=O)[C@@]1(OC)[C@H]3N[C@H]3CN21 [Compound 28, 7-N--(2-n-butylaminocarbonylthioethyl)mitomycin C] | 1.73 | 9.9 | 43.8 | – | – | – | –
CO[C@@]12[C@H](COC(N)=O)C3=C(C(=O)C(C)=C(NCCSC(=O)N4CCOCC4)C3=O)N1C[C@@H]1N[C@@H]12 [Compound 33, 7-N--(2-morpholinocarbonylthioethyl)mitomycin C] | 1.23 | 17.8 | 52.5 | – | – | – | –
CO[C@@]12[C@H](COC(N)=O)C3=C(C(=O)C(C)=C(NCCSC(=O)NC(C)(C)C(=O)OC(C)(C)C)C3=O)N1C[C@@H]1N[C@@H]12 [Compound 34, 7-N--[2-(1-methyl-1-t-butoxycarbonylethyl)-aminocarbonylthioethyl]mitomycin C] | 1.14 | 13.7 | 37.5 | – | – | – | –
CO[C@@]12[C@H](COC(N)=O)C3=C(C(=O)C(C)=C(NCCSC(=O)N(C)NC=O)C3=O)N1C[C@@H]1N[C@@H]12 [Compound 35, 7-N--[2-(1-methyl-2-formylhydrazino)carbonylthioethyl]mitomycin C] | 1.30 | 27.9 | 105 | – | – | – | –
CO[C@@]12[C@H](COC(N)=O)C3=C(C(=O)C(C)=C(NCCSC(=S)NC4CCCCC4)C3=O)N1C[C@@H]1N[C@@H]12 [Compound 37, 7-N--(2-cyclohexylaminothiocarbonylthioethyl)mitomycin C] | 0.73 | 23.5 | 41.3 | – | – | – | –
CC1=C(NCCSC(=S)NC2CCCCC2)C(=O)C2=C(C1=O)N1C[C@H]3[C@H](N3C)[C@]1(O)[C@H]2COC(N)=O (stereo partly shown) [Compound 38, 7-N--(2-cyclohexylaminothiocarbonylthioethyl)mitomycin D] | 0.79 | 39.5 | 75 | – | – | – | –
CCCNC(=S)SCCNC1=C(C)C(=O)C2=C(C1=O)[C@@H](COC(N)=O)[C@@]1(OC)[C@H]3N[C@H]3CN21 [Compound 40, 7-N--(2-n-propylaminothiocarbonylthioethyl)mitomycin C] | > 1.03 | 10.1 | > 25 | – | – | – | –
CO[C@@]12[C@H](COC(N)=O)C3=C(C(=O)C(C)=C(NCCSC(=O)N4CCC(Cc5ccccc5)CC4)C3=O)N1C[C@@H]1N[C@@H]12 [Compound 41, 7-N--[2-(4-benzylpiperidino)carbonylthioethyl]mitomycin C] | 1.37 | 13.7 | 41.3 | – | – | – | –
CO[C@@]12[C@H](COC(N)=O)C3=C(C(=O)C(C)=C(NCCSC(=O)N4CCCCC4)C3=O)N1C[C@@H]1N[C@@H]12 [Compound 42, 7-N--(2-piperidinocarbonylthioethyl)mitomycin C] | 1.14 | 9.34 | 33.8 | – | – | – | –
CO[C@@]12[C@H](COC(N)=O)C3=C(C(=O)C(C)=C(NCCSC(=O)N4CCC(O)CC4)C3=O)N1C[C@@H]1N[C@@H]12 [Compound 43, 7-N--[2-(4-hydroxypiperidino)carbonylthioethyl]mitomycin C] | 2.17 | 9.15 | 52.5 | – | – | – | –
COC(=O)[C@@H]1CC(O)CN1C(=O)SCCNC1=C(C)C(=O)C2=C(C1=O)[C@@H](COC(N)=O)[C@@]1(OC)[C@H]3N[C@H]3CN21 (stereo partly drawn) [Compound 44, 7-N--[2-((S)--2-methoxycarbonyl-(SR)-4-hydroxypyrrolidino)carbonylthioethyl]mitomycin C] | > 1.85 | 27.5 | > 100 | – | – | – | –
CO[C@@]12[C@H](COC(N)=O)C3=C(C(=O)C(C)=C(NCCSC(=S)NC(c4ccccc4)c4ccccc4)C3=O)N1C[C@@H]1N[C@@H]12 [Compound 50] | – | – | – | > 2.39 | 1.10 | 12.5 | 0.74
